Measured values from the METLIN SMRT retention time set (Domingo-Almenara et al. 2019).

Assay: gradient 5% acetonitrile 3 min, to 50% in 2 min, to 85% in 15 min, held 3 min, 100 µL/min
Details: column: Zorbax Extend-C18 2.1 x 50 mm; eluents: water / acetonitrile, 0.1% formic acid
How it was run: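 Data were gathered over 3 months by HPLC coupled to a quadrupole time-of-flight mass spectrometer, operated in positive and negative ionization mode. Mixtures of ~100 pure standards ran on a Zorbax Extend-C18 column (2.1 × 50 mm, 1.8 μm) at 100 μL/min, with water and acetonitrile each containing 0.1% formic acid and dead and dwell volumes of 40 μL and 900 μL. Retention time was read from adduct peaks picked by computer and checked manually.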

| SMILES | RP-LC retention time |
| --- | --- |
| CCn1ncc(NC(=O)COc2ccccc2C)c(N2CCCCC2)c1=O | 1150 s |
| CCOC(Cn1c(-c2ccc(OC)cc2)nc2ccccc21)OCC | 713 s |
| CC(C)n1cnc2c(C(=O)N[C@H]3CN4CCC3CC4)cc(Cl)cc21 | 692 s |
| O=C(NCc1cccs1)C1CN(C(=O)c2cccs2)CC12CCCCC2 (stereo unspecified) | 856 s |
| CC(C)(C)NC(=O)Cc1cccn1-c1cccc(Cl)c1 | 1010 s |
| COCc1cc2nn(CC(=O)Nc3ccc(C)cc3F)c(=O)n2c(-c2ccccc2)n1 | 858 s |
| CC(=O)N1CCc2cc(C(=O)N3CCOCC3)ccc21 | 607 s |
| CN1c2cc(C(=O)Nc3ccc(OC(F)(F)F)cc3)ccc2C(=O)N2CCCCC21 (stereo unspecified) | 1010 s |
| CCn1cc(S(=O)(=O)Nc2cc(C)ccc2F)c2cccnc21 | 846 s |
| Cc1ccc(Cl)cc1N1C(=O)CN(S(C)(=O)=O)CC1(C)C(=O)NCc1ccccc1 (stereo unspecified) | 854 s |
| CN(C)CCOc1ccc(I)cc1Cc1ccccc1 | 739 s |
| CCc1ccc(-c2cc(C(=O)N3CCCN(c4ccc(=O)n(-c5ccc(C)cc5)n4)CC3)[nH]n2)cc1 | 873 s |
| CCCCN1N=C(C(=O)N2CCCCCC2)S(=O)(=O)c2ccc(C)cc21 | 1050 s |
| CCN(CC)CCNC(=O)Cc1c(C)nc2c(-c3ccc(F)cc3)c(C)nn2c1C | 661 s |
| Cc1ccc(-c2nnc(N3CCC(C(=O)NCCC4=CCCCC4)CC3)o2)cc1 | 990 s |
| Cc1ccc(NS(=O)(=O)c2cc3n(c2)CCCN(C)C3=O)c(F)c1 | 684 s |
| Cc1cc(N2CCN(C)CC2)nc2ccc(NC(=S)NCc3ccco3)cc12 | 564 s |
| Cc1ccccc1NC(=O)N1CCN(Cc2cn(C)c3ccccc23)CC1 | 589 s |
| COC(=O)Cn1c(C2CC(=O)N(c3ccccc3C)C2)nc2ccccc21 (stereo unspecified) | 704 s |
| O=C(c1ccc(Br)o1)N1CCN=C1N1CCN(c2ccccc2F)CC1 | 695 s |
| O=C(CN1CCN(Cc2cccc(Cl)c2)C1=O)NCCc1cccs1 | 823 s |
| O=C(Nc1ccc2c(c1)C(=O)Nc1ccccc1O2)c1nc2ccccc2s1 | 928 s |
| CCN(Cc1cc(Nc2nc(C)cn3c(-c4cn[nH]c4)cnc23)sn1)C(C)(C)CO | 682 s |
| CC(CCNC(=O)c1cc2c(-c3cccs3)nn(-c3ccccc3)c2n1C)N1CCCC1 (stereo unspecified) | 726 s |
| Fc1cc(F)cc(-c2nnc(Cc3nc(-c4ccccc4Cl)no3)o2)c1 | 1050 s |

| SMILES | RP-LC retention time |
| --- | --- |
| Cc1cccc(-c2noc(CN3C(=O)COc4cc(C)ccc43)n2)c1 | 1110 s |
| CC(C)N1C(=O)C(C)(C(=O)NC2CCCCC2)Oc2cccnc21 (stereo unspecified) | 1010 s |
| CC(C)CC(=O)N1C[C@H](c2nc(-c3ccccc3)no2)[C@@H](C)C1 | 951 s |
| Cc1ccccc1Cn1c(CN2CCC(C(=O)NCc3cccs3)CC2)cc2ccccc21 | 790 s |
| Cc1cccc(N2CCN(Cc3nc(-c4ccc(N5CCCC(C)C5)nc4)no3)CC2)c1 (stereo unspecified) | 1100 s |
| CCc1nc(OCC(=O)Nc2ccc(Br)cc2)c2ccccc2n1 | 874 s |
| Cc1cccc(NC(=O)Nc2cnc3c(c2)CCC3)c1 | 578 s |
| COc1ccccc1-c1nc(-c2ccnc(N3CCOCC3)c2)no1 | 812 s |
| COC(=O)c1ccc2c(=O)n(Cc3ccc(F)cc3)c(N3CCN(C)CC3)nc2c1 | 668 s |
| O=C(Nc1ccccc1)N1CC(c2nc(CCOCC3CC3)no2)C1 | 792 s |
| Cc1ccc(CC(=O)N2CCc3cc(-c4csc(C)n4)ccc32)cc1 | 1070 s |
| O=C(CCCc1ccccc1)NCC1CN(c2ccc3c(c2)OCO3)C(=O)O1 (stereo unspecified) | 750 s |
| CC(C)Oc1ccc(CNC(=O)C2=Cc3ccccc3OC2)cc1 | 1040 s |
| COc1ccc(NC(=O)NCCc2nc3cccnc3n2C2CCCC2)c(OC)c1 | 708 s |
| CCCN(C(=O)Cc1ccccc1)c1nc(-c2ccccc2)cs1 | 1320 s |
| CCOC(=O)C1CCN(c2ncccc2-c2nnc(-c3ccc(Cl)cc3)o2)CC1 | 1240 s |
| Cc1cc(=O)n(CC(=O)Nc2ccc(F)cc2C)c(N2CCOCC2)n1 | 644 s |
| CCOC(=O)c1[nH]c(C)c(C(=O)C(C)N(Cc2ccc(F)cc2)C(=O)C2CC2)c1C (stereo unspecified) | 917 s |
| CCNc1cc(N2CCC(CCC(=O)NCc3ccc(OC)cc3)CC2)ncn1 | 568 s |
| O=C(NCc1ccc(Cl)cc1)c1ccc2c(c1)N(CC(=O)N1CCCC1)C(=O)CO2 | 768 s |
| COc1ccc(-c2cn3c(CC(=O)Nc4cccc(Cl)c4)csc3n2)cc1OC | 791 s |
| Cc1ccsc1CCNC(=O)Cn1nc(C(=O)N2CCCC2)c2ccccc21 | 824 s |
| CCn1c(C2CCN(C(=O)c3ccc(C(F)(F)F)s3)C2)nc2cccnc21 (stereo unspecified) | 782 s |
| COc1ccc(-c2cn3ccn(-c4cccc(F)c4)c(=O)c3n2)cc1OC | 746 s |

Next, values leading:

| RP-LC retention time | SMILES |
| --- | --- |
| 732 s | Cn1cc(S(=O)(=O)N2CCC(C(=O)N3CCCCCC3)CC2)cc1C(=O)N1CCCC1 |
| 591 s | O=C(CSc1ncccn1)N1CCCC1 |
| 744 s | CCC(=O)N1CCc2cc(N3CC(C(=O)NCc4ccccc4Cl)CC3=O)ccc21 (stereo unspecified) |
| 935 s | CCn1cc(C(=O)NCCc2ccc(Cl)cc2)c(S(=O)(=O)N2CCSCC2)n1 |
| 745 s | COc1ccc(NC(=O)N2CCC3(C2)C(=O)N(C)c2ccccc23)cc1 (stereo unspecified) |
| 629 s | CCC(CC)NC(=O)C1Cn2cccc2C(=O)N1 (stereo unspecified) |
| 710 s | CCc1nnc2c(=O)n(CC(=O)NCc3cccc(F)c3)c3cccnc3n12 |
| 806 s | COc1ccc(C(=O)N2CCc3ccc(C(=O)NCc4cccs4)cc32)cc1 |
| 649 s | O=C1CCc2cc(NC(=O)c3cncc(Br)c3)ccc2N1 |
| 631 s | Cc1ccc(CN2CCCn3nc(C(=O)NCCN4CCCCC4)cc3C2=O)cc1 |
| 624 s | O=C(NCc1cccnc1)C1CCN(Cc2cc3ccccc3n2Cc2ccccc2)CC1 |
| 874 s | COc1ccc(Cl)cc1S(=O)(=O)NCC1(C)CCOCC1 |
| 1270 s | Cc1cccc(-c2nnc(-c3nc(N4CCCCC4C)c4ccccc4n3)o2)c1 (stereo unspecified) |
| 880 s | COc1ccccc1CNC(=O)c1ccc2c(c1)N(C)C(=O)C1CCCCN21 (stereo unspecified) |
| 572 s | O=C(Cc1cccc2ccccc12)NCC1CCN(Cc2cccs2)CC1 |
| 570 s | c1ccc(-c2n[nH]c(CC3CCNC3)n2)cc1 (stereo unspecified) |
| 966 s | Cc1oc(-c2ccc(NC(=O)CC3CCCCC3)cc2)nc1Cn1cccn1 |
| 841 s | O=C(c1ccc2cc[nH]c2c1)N1CCC2(CC1)N=C(c1ccc(Cl)cc1)NO2 |
| 696 s | CC(C)NC(=O)NCC1Cn2cccc2C(=O)N1Cc1ccccc1 (stereo unspecified) |
| 981 s | CCc1ccc(OCC(=O)Nc2cnn(CC)c(=O)c2N2CCOCC2)cc1 |
| 884 s | Cc1ccc(NC(=O)C2CC(=O)N(CCc3c[nH]c4ccc(Cl)cc34)C2)cc1 (stereo unspecified) |

| RP-LC retention time | SMILES |
| --- | --- |
| 951 s | Cc1cc(NC(=O)CSc2cn(Cc3cccc(F)c3)c3ccccc23)no1 |
| 668 s | Cc1ccccc1CNC(=O)C(=O)NCC(c1ccc2c(c1)OCO2)N1CCOCC1 (stereo unspecified) |
| 907 s | O=C(Nc1ccnn1Cc1ccccc1)c1cc(=O)c2cc(Br)ccc2o1 |
| 753 s | CCc1nc(OCC(=O)NCc2ccc(F)cc2)c2ccccc2n1 |
| 1060 s | O=C(Nc1ccc(Br)cc1F)C1CCCN(C(=O)c2cccc(C(F)(F)F)c2)C1 (stereo unspecified) |
| 670 s | c1ccc(Nc2c(-c3ccc(N4CCOCC4)cc3)nc3ccccn23)cc1 |
| 692 s | O=C(c1ccco1)N1CCC2(CC1)NC(=O)N(Cc1ccc(F)cc1)C2=O |
| 564 s | COc1ccc(CN2CCC3(CC2)CC(O)CCO3)cc1 (stereo unspecified) |
| 832 s | Cc1cccc(NC(=O)Cn2cc(S(=O)(=O)c3ccc(F)cc3)c3ccccc32)n1 |
| 998 s | Cc1ccc(C)c(NC(=O)C2CCN(S(C)(=O)=O)c3cc(C)ccc3O2)c1 (stereo unspecified) |
| 771 s | COc1ccc(NC(=O)N2CCC3(CC2)CN(c2ccccc2)C3=O)cc1OC |
| 1130 s | CCCCOc1ccc(C(=O)Nc2ccc(F)cc2F)cc1 |
| 590 s | CCN(C(=O)Nc1ccccc1C(=O)OC)c1nc(-c2ccc(C3CCCCC3)cc2)cs1 |
| 885 s | CCn1c(C(=O)N2CCCC(C(=O)N3CCN(c4ccc(OC)cc4)CC3)C2)cc2sccc21 (stereo unspecified) |
| 815 s | c1cc(N2CCSCC2)ncc1-c1noc(CN2CCSCC2)n1 |
| 940 s | Cc1cnn(Cc2nc(-c3ccc(NC(=O)c4ccc(C)s4)cc3)oc2C)c1 |
| 829 s | COc1ccc(C(=O)Nc2ccc(N3CCN(C4CCCC4)C3=O)nc2)c(OC)c1 |
| 942 s | CCn1c(=O)sc2cc(S(=O)(=O)N3CCC(C(=O)NCCc4ccccc4)CC3)ccc21 |
| 786 s | CC(C)CCNc1ccc2nncn2n1 |
| 754 s | Cc1ccc(NC(=O)N2CCC(N3CCN(Cc4ccc(F)cc4)C(=O)C3=O)CC2)cc1 |
| 696 s | O=C(NCc1cccs1)c1ccc(N2CCCCS2(=O)=O)cc1 |
